Where a name gives a salt, the structure may show the parent alone.
Tests used:
[1] = biological target: human GLP-1R (Homo sapiens, UniProt P43220, G168S); assay: CHO GLP-1R Clone H6 cAMP HTRF agonist assay (Assay 1, high receptor density); type: cell-based; conditions: for EC50: geometric mean; for Emax: CHO GLP-1R clone H6, arithmetic mean, relative to saturating GLP-1 (1 μM), read-out: Assay 1 Emax (%)
Summary of the method: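 From replicate determinations, mean EC50 (geometric) and mean Emax (arithmetic) were derived and expressed to two significant figures.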

[2] = biological target: human GLP-1R (Homo sapiens, UniProt P43220, L260F); assay: CHO GLP-1R Clone C6 cAMP HTRF agonist assay (Assay 2, low receptor density); type: cell-based; conditions: for EC50: geometric mean; for Emax: CHO GLP-1R clone C6, relative to saturating GLP-1 (1 μM)
Excerpt: In Table 5 and Table 6, assay data are presented to two (2) significant figures as the geometric mean (EC50s) and arithmetic mean (Emax) based on the number of replicates listed (Number). A blank cell means there was no data for that Example or the Emax was not calculated.

[3] = CHO GLP-1R clone, low receptor density, cAMP HTRF

human GLP-1R (Homo sapiens, UniProt P43220, L260F), sequence (P43220 24-463 L260F): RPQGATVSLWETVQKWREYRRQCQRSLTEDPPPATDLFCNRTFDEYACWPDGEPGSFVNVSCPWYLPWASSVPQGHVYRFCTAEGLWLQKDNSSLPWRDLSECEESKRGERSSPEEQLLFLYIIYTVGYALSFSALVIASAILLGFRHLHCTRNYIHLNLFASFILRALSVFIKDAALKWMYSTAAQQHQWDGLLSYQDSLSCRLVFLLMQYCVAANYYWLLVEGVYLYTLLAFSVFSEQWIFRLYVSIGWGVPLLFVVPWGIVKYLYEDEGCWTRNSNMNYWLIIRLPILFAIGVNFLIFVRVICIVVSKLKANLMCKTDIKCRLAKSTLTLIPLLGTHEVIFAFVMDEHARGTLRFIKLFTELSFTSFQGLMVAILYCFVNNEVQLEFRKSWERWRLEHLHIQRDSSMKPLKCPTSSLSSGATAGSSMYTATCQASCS
human GLP-1R (Homo sapiens, UniProt P43220, G168S), sequence (P43220 24-463 G168S): as the sequence (P43220 24-463 L260F) above, with G145S, F237L counted along it

Row | Compound | EC50 ([1]; CHO GLP-1R clone, cAMP HTRF) [nM] | EC50 [2, 3] [nM] | Assay 2 Emax ([2]; relative to saturating full agonist GLP-1 (1 μM), arithmetic mean) [%] | EC50 ([1]; CHO GLP-1R clone H6, cAMP HTRF) [nM] | Emax [1] [%] | EC50 ([2]; CHO GLP-1R clone C6, cAMP HTRF) [nM] | Emax ([2]; arithmetic mean) [%]
1 | CCn1cncc1Cn1c(CN2CCC(c3cccc4c3OC(C)(c3ccc(Cl)cc3F)O4)CC2)nc2ccc(C(=O)O)cc21 (single isomer, unassigned; ent-1) [Compound 21B, Ammonium 2-({4-[2-(4-chloro-2-fluorophenyl)-2-methyl-1,3-benzodioxol-4-yl]piperidin-1-yl}methyl)-1-[(1-ethyl-1H-imidazol-5-yl)methyl]-1H-benzimidazole-6-carboxylate, ENT-1] | 0.079 | 1.1 |  |  |  |  | 
2 | CCn1cncc1Cn1c(CN2CCC(c3cccc4c3OC(C)(c3ccc(Cl)cc3F)O4)CC2)nc2ccc(C(=O)O)cc21.N (single isomer, unassigned; ent-2) [Compound 22B, Ammonium 2-({4-[2-(4-chloro-2-fluorophenyl)-2-methyl-1,3-benzodioxol-4-yl]piperidin-1-yl}methyl)-1-[(1-ethyl-1H-imidazol-5-yl)methyl]-1H-benzimidazole-6-carboxylate, ENT-2] | 210 | 1000 | 87 |  |  |  | 
3 | CC1CN(c2cccc(OCc3ccc(Cl)cc3F)n2)CCN1Cc1nc2ccc(C(=O)O)cc2n1Cc1cocn1 (stereo in doubt) [Compound 240B, 2-{[(2S)-4-{6-[(4-chloro-2-fluorobenzyl)oxy]pyridin-2-yl}-2-methylpiperazin-1-yl]methyl}-1-(1,3-oxazol-4-ylmethyl)-1H-benzimidazole-6-carboxylic acid] |  |  |  | 0.5 | 78 | 16 | 86
4 | CC1CN(c2cccc(OCc3ccc(C#N)cc3F)n2)CCN1Cc1nc2ccc(C(=O)O)cc2n1Cc1cnco1 (stereo in doubt) [Compound 242B, 2-{[(2S)-4-{6-[(4-cyano-2-fluorobenzyl)oxy]pyridin-2-yl}-2-methylpiperazin-1-yl]methyl}-1-(1,3-oxazol-5-ylmethyl)-1H-benzimidazole-6-carboxylic acid] |  |  |  | 0.52 | 70 | 8.5 | 78
5 | COCCn1c(C2CC23CCC(c2cccc4c2OC(C)(c2ccc(Cl)cc2F)O4)CC3)nc2ccc(C(=O)O)cc21 (stereo not shown) [Compound 29B, 2-{6-[2-(4-chloro-2-fluorophenyl)-2-methyl-1,3-benzodioxol-4-yl]-6-azaspiro[2.5]oct-1-yl}-1-(2-methoxyethyl)-1H-benzimidazole-6-carboxylic acid, DIAST-Z2, trifluoroacetate salt] | > 20000 | > 20000 |  |  |  |  | 
6 | N#Cc1ccc(COc2cccc(N3CCN(Cc4nc5ccc(C(=O)O)cc5n4C[C@@H]4CCO4)CC3)n2)c(F)c1 [Compound 108B, 2-[(4-{6-[(4-cyano-2-fluorobenzyl)oxy]pyridin-2-yl}piperazin-1-yl)methyl]-1-[(2S)-oxetan-2-ylmethyl]-1H-benzimidazole-6-carboxylic acid] |  |  |  | 16 | 85 | 320 | 88
7 | [2H]C([2H])(Oc1cccc(C2CCN(Cc3nc4ccc(C(=O)O)cc4n3C[C@@H]3CCO3)CC2)n1)c1ccc(C#N)cc1F [Compound 112B, 2-{[4-(6-{[(4-cyano-2-fluorophenyl)(methyl-d2)]oxy}pyridin-2-yl)piperidin-1-yl]methyl}-1-[(2S)-oxetan-2-ylmethyl]-1H-benzimidazole-6-carboxylic acid] |  |  |  |  | 84 |  | 70
8 | N#Cc1ccc(COc2nc(C3CCN(Cc4nc5ccc(C(=O)O)cc5n4C[C@@H]4CCO4)CC3)ccc2F)c(F)c1 [Compound 113B, 2-[(4-{6-[(4-cyano-2-fluorobenzyl)oxy]-5-fluoropyridin-2-yl}piperidin-1-yl)methyl]-1-[(2S)-oxetan-2-ylmethyl]-1H-benzimidazole-6-carboxylic acid] |  |  |  | 3.9 | 82 | 45 | 82
9 | N#Cc1ccc(COc2cccc(C3CCN(Cc4nc5ccc(C(=O)O)nc5n4C[C@@H]4CCO4)CC3)n2)c(F)c1 [Compound 114B, 2-[(4-{6-[(4-cyano-2-fluorobenzyl)oxy]pyridin-2-yl}piperidin-1-yl)methyl]-3-[(2S)-oxetan-2-ylmethyl]-3H-imidazo[4,5-b]pyridine-5-carboxylic acid] |  |  |  | 7.1 | 81 | 120 | 85
10 | C[C@H]1CN(c2cccc(OCc3ccc(C#N)cc3F)n2)CCN1Cc1nc2ccc(C(=O)O)cc2n1C[C@@H]1CCO1 [Compound 115B, 2-{[(2S)-4-{6-[(4-cyano-2-fluorobenzyl)oxy]pyridin-2-yl}-2-methylpiperazin-1-yl]methyl}-1-[(2S)-oxetan-2-ylmethyl]-1H-benzimidazole-6-carboxylic acid] |  |  |  | 0.95 | 92 | 17 | 120
11 | O=C(O)c1ccc2nc(CN3CCN(c4cccc(OCc5ccc(Cl)cc5F)n4)CC3)n(C[C@@H]3CCO3)c2n1 [Compound 120B, 2-[(4-{6-[(4-chloro-2-fluorobenzyl)oxy]pyridin-2-yl}piperazin-1-yl)methyl]-3-[(2S)-oxetan-2-ylmethyl]-3H-imidazo[4,5-b]pyridine-5-carboxylic acid] |  |  |  | 47 | 71 | 1600 | 81

Now from value to compound:

Row | EC50 ([1]; CHO GLP-1R clone, cAMP HTRF) [nM] | EC50 [2, 3] [nM] | Assay 2 Emax ([2]; relative to saturating full agonist GLP-1 (1 μM), arithmetic mean) [%] | EC50 ([1]; CHO GLP-1R clone H6, cAMP HTRF) [nM] | Emax [1] [%] | EC50 ([2]; CHO GLP-1R clone C6, cAMP HTRF) [nM] | Emax ([2]; arithmetic mean) [%] | Compound
12 |  |  |  | 81 | 77 | 910 | 94 | O=C(O)c1ccc2nc(CN3CCC(c4cccc(OCc5ccc(Cl)cc5F)n4)CC3)n(C[C@@H]3CCO3)c2c1 [Compound 107B, 2-[(4-{6-[(4-chloro-2-fluorobenzyl)oxy]pyridin-2-yl}piperidin-1-yl)methyl]-1-[(2S)-oxetan-2-ylmethyl]-1H-benzimidazole-6-carboxylic acid]
13 |  |  |  |  | 75 |  | 67 | N#Cc1ccc(COc2cccc(C3CCN(Cc4nc5ccc(C(=O)O)cc5n4C[C@H]4CCO4)CC3)n2)c(F)c1 [Compound 111B, 2-[(4-{6-[(4-cyano-2-fluorobenzyl)oxy]pyridin-2-yl}piperidin-1-yl)methyl]-1-[(2R)-oxetan-2-ylmethyl]-1H-benzimidazole-6-carboxylic acid]
14 |  |  |  | 930 | 86 | 9000 | 100 | O=C(O)c1ccc2nc(CN3CCC(c4cccc(OCc5ccc(Cl)cc5F)n4)CC3)n(C[C@@H]3CCCO3)c2c1 [Compound 116B, 2-[(4-{6-[(4-chloro-2-fluorobenzyl)oxy]pyridin-2-yl}piperidin-1-yl)methyl]-1-[(2S)-tetrahydrofuran-2-ylmethyl]-1H-benzimidazole-6-carboxylic acid]
15 |  |  |  | 19 | 76 | 530 | 97 | O=C(O)c1ccc2nc(CN3CCC(c4cccc(OCc5ccc(F)cc5F)n4)CC3)n(C[C@@H]3CCO3)c2c1 [Compound 117B, 2-[(4-{6-[(2,4-difluorobenzyl)oxy]pyridin-2-yl}piperidin-1-yl)methyl]-1-[(2S)-oxetan-2-ylmethyl]-1H-benzimidazole-6-carboxylic acid]
16 |  |  |  | 1.5 | 86 | 14 | 82 | O=C(O)c1ccc2nc(CN3CCC(c4cccc(OCc5ccc(Cl)cc5F)n4)CC3)n(C[C@@H]3CCO3)c2n1 [Compound 122B, 2-[(4-{6-[(4-chloro-2-fluorobenzyl)oxy]pyridin-2-yl}piperidin-1-yl)methyl]-3-[(2S)-oxetan-2-ylmethyl]-3H-imidazo[4,5-b]pyridine-5-carboxylic acid]

Reference: US20250235460A1, “COMBINATION THERAPY USING GLUCOSE-DEPENDENT INSULINOTROPIC POLYPEPTIDE RECEPTOR ANTAGONIST COMPOUNDS AND GLP-1 RECEPTOR AGONIST COMPOUNDS” (Pfizer Inc., priority 2024, published 2025)
